How the values were obtained:
MCF-7 = assay: Tumor cell proliferation (MTS), MCF-7; type: cell-based; conditions: Homo sapiens, MCF7; 72 hours, complete medium
Method: (§1) Measurement of In Vivo Cell Proliferation:
(§2) Tumor cells were trypsinized and plated into 96-well plates at 3,000 per well and incubated in complete medium with 10% FBS for 24 hours. Compounds were added over a final concentration range of 100 μmol/L to 100 nmol/L in 0.1% DMSO and incubated for 72 hours in complete medium. The effects on proliferation were determined by addition of MTS reagent (Promega) according to the instruction, incubation for 2 hours at 37° C. in CO2 incubator, and record the absorbance at 490 nm using an ELISA plate reader.
(§3) Human Cell Lines are Listed Below:
MCF-7: Mammary gland adenocarcinoma

Bel-7402 = assay: Tumor cell proliferation (MTS), Bel-7402; type: cell-based; conditions: Homo sapiens, 72 hours, complete medium
Method: as §1, §2, §3
Bel-7402: Hepatocellular carcinoma

A-498 = assay: Tumor cell proliferation (MTS), A-498; type: cell-based; conditions: Homo sapiens, A498; 72 hours, complete medium
Method: as §1, §2

HUVEC cells = assay: VEGF dependent cell proliferation (MTS); type: cell-based; conditions: Homo sapiens, VEGF 165 50 ng/ml, 72 hours, serum-free medium, read-out: GI50 nM (VEGF ligand-dependent cell proliferation)
Method: VEGF Dependent Cell Proliferation:
HUVEC cells were plated into 96-well plates at 6,000 per well and incubated with serum-free medium for 2 hours. Compounds and VEGF 165 (50 ng/ml) were added and incubated for 72 hours in serum-free medium. The effects on proliferation were determined by addition of MTS reagent (Promega) according to the instruction, incubation for 2 hours at 37° C. in CO2 incubator, and record the absorbance at 490 nm using an ELISA plate reader.

[1] = test system: total HDAC enzyme (HeLa extract); assay: In vitro inhibition of total HDAC enzyme activity (HDAC Fluorimetric Assay/Drug Discovery Kit); type: biochemical
Method: Measurement of In Vitro Inhibition of Total HDAC Enzyme Activity:
The in vitro inhibition of total HDAC enzyme was determined by HDAC Fluorimetric Assay/Drug Discovery Kit (BIOMOL) according to manufacture's instruction. • 1. Add Assay buffer, diluted trichostatin A or test inhibitor to appropriate wells of the microtiter plate. Following table lists examples of various assay types and the additions required for each test.
• 2. Add diluted HeLa extract or other HDAC sample to all wells except those that are to be “No Enzyme Controls” (Blank). • 3. Allow diluted Fluor de Lys™ Substrate and the samples in the microtiter plate to equilibrate to assay temperature (25° C.). • 4. Initiate HDAC reactions by adding diluted substrate (25 μl) to each well and mixing thoroughly. • 5. Allow HDAC reactions to proceed for desired length of time and then stop them by addition of Fluor de Lys™ Developer (50 μl). Incubate plate at room temperature (25° C.) for 10-15 min. • 6. Read samples in a microtiter-plate reading fluorimeter capable of excitation at a wavelength in the range 350-380 nm and detection of emitted light in the range 440-460 nm. Measurement of In Vivo Inhibition of HDAC Subtype Activity: […]

human PDGFRβ = target: T1, human PDGFRβ (Homo sapiens, UniProt P09619); assay: PDGF dependent cell proliferation (MTS); type: cell-based; conditions: PDGFRβ NIH-3T3 cells, PDGF BB 50 ng/ml, 72 hours, serum-free medium; read-out: GI50 nM (PDGF ligand-dependent cell proliferation)
T1 construct: expressed in transfected cells
Method: PDGF Dependent Cell Proliferation:
NIH-3T3 mouse fibroblasts cell line engineered to stably express human PDGFIRβ was constructed and used to evaluate PDGF dependent cell proliferation. PDGFRβ NIH-3T3 cells were plated into 96-well plates at 5,000 per well and incubated with serum-free medium for 24 hours. Compounds and PDGF BB (50 ng/ml) were added and incubated for 72 hours in serum-free medium. The effects on proliferation were determined by addition of MTS reagent (Promega) according to the instruction, incubation for 2 hours at 37° C. in CO2 incubator, and record the absorbance at 490 nm using an ELISA plate reader.

Class I HDAC = assay: P21 reporter gene assay in HeLa cells; type: cell-based; conditions: 24 hours
Method: HDAC subtype selectivity inhibition assay of tested compounds was carried out by several reporter gene assays experiments. Briefly, HeLa cells were seeded in 96-well plates the day before transfection to give a confluence of 50-80%. Cells were transfected with one of reporter gene plasmid containing a promoter sequence or response element upstream of a luciferase gene construct using FuGene6 transfection reagent according to the manufacturer's instruction (Roche). The promoters or response elements including p21-promoter was fused upstream to the luciferase gene reporter construct. For normalizing the transfection efficiency, a GFP expression plasmid was cotransfected. Cells were allowed to express protein for 24 hours followed by addition of individual compounds or the vehicle (DMSO). 24 hours later the cells were harvested, and the luciferase assay and GFP assay were performed using corresponding assay kits according to the manufacturer's instructions (Promega).

A549 = assay: Tumor cell proliferation (MTS), A549; type: cell-based; conditions: Homo sapiens, 72 hours, complete medium
Method: as §1, §2, §3
A549: Non small cell lung carcinoma

HCT-8 = assay: Tumor cell proliferation (MTS), HCT-8; type: cell-based; conditions: Homo sapiens, 72 hours, complete medium
Method: as §1, §2, §3
HCT-8: Ileocecal colorectal adenocarcinoma

T1 sequence (P09619 33-1106): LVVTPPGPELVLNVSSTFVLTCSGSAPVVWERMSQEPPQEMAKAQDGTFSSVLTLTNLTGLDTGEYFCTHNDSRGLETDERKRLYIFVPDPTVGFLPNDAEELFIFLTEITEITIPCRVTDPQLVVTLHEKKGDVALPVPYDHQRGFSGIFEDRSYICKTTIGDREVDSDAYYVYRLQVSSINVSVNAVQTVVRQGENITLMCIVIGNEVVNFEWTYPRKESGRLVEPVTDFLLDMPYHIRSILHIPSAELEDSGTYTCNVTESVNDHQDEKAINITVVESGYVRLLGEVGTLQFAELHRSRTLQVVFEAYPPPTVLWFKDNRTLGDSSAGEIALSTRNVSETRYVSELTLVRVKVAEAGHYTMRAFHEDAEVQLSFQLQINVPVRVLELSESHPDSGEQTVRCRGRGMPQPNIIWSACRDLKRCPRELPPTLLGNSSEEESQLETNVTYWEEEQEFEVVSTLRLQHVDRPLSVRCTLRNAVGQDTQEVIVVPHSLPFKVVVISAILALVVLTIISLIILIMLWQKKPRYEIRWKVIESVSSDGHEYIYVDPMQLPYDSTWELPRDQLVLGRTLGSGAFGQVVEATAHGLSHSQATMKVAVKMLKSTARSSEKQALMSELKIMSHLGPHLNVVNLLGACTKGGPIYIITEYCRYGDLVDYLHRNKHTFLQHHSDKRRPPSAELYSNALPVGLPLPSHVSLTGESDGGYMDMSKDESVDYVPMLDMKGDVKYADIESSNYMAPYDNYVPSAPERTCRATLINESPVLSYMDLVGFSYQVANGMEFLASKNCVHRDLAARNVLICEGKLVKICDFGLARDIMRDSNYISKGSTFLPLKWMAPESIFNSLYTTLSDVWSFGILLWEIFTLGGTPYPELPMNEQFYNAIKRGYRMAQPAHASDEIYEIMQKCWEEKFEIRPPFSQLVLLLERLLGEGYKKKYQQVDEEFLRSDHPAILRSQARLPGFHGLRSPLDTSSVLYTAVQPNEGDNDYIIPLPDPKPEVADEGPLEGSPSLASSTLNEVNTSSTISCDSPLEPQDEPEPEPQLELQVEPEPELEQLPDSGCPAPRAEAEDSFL

| GI50 (MCF-7) | GI50 (Bel-7402) | GI50 (A-498) | % inhibition of total HDAC enzyme activity at 30 μM [1] | GI50 (human PDGFRβ) | Class I HDAC (P21 reporter assay) Fold Induction at 10 μM (Class I HDAC) | GI50 (A549) | GI50 (HCT-8) | Compound | GI50 (HUVEC cells) |
| --- | --- | --- | --- | --- | --- | --- | --- | --- | --- |
| 9.4 µM | 30 µM | 6.9 µM | 39.3% | 74 nM | 3.1 Fold | 30 µM | 8 µM | COc1cc2nccc(Oc3ccc4c(C(=O)NCc5ccc(C(=O)Nc6ccccc6N)cn5)cccc4c3)c2cc1OC [Example 38] | 25 nM |
| 4.3 µM | 30 µM | 14.7 µM | 49.4% | 148 nM | 11.3 Fold | 30 µM | 5.7 µM | COc1cc2ncnc(Oc3ccc4c(C(=O)NCc5ccc(C(=O)Nc6ccccc6N)cc5)cccc4c3)c2cc1OC [Example 23, N-(4-((2-aminophenyl)carbamoyl)benzyl)-6-(6,7-dimethoxyquinazolin-4-yloxy)-1-naphthamide] | 18 nM |
| 13.3 µM | 19.5 µM | 9.1 µM | 19.3% | 5 nM | 1.2 Fold | 7.7 µM | 8.9 µM | COc1cc2nccc(Oc3ccc4c(C(=O)Nc5ccccc5N)cccc4c3)c2cc1OC [Example 35, N-(2-aminophenyl)-6-(6,7-dimethoxyquinolin-4-yloxy)-1-naphthamide] | 1 nM |
| 8.9 µM | 12.1 µM | 4.2 µM | 14.4% | 3 nM | 1.2 Fold | 7.4 µM | 4.1 µM | COc1cc2nccc(Oc3ccc4c(C(=O)Nc5ccc(F)cc5N)cccc4c3)c2cc1OC [Example 36, N-(2-amino-4-fluorophenyl)-6-(6,7-dimethoxyquinolin-4-yloxy)-1-naphthamide] | 2 nM |
| 6.1 µM | 30 µM | 14.7 µM | 47.9% | 69 nM | 12.1 Fold | 30 µM | 4.9 µM | COc1cc2ncnc(Oc3ccc4c(C(=O)NCc5ccc(C(=O)Nc6ccccc6N)cn5)cccc4c3)c2cc1OC [Example 25] | 13 nM |
|  |  |  | 17.1% | 15 nM | 1.1 Fold |  |  | COc1cc2ncnc(Oc3ccc4c(C(=O)Nc5ccc(C)cc5N)cccc4c3)c2cc1OC [Example 18, N-(2-amino-4-methylphenyl)-6-(6,7-dimethoxyquinazolin-4-yloxy)-1-naphthamide] | 7 nM |
|  |  |  | 21.9% | 23 nM | 1.5 Fold |  |  | COc1cc2ncnc(Oc3ccc4c(C(=O)Nc5ccc(Cl)cc5N)cccc4c3)c2cc1OC [Example 20, N-(2-amino-4-chlorophenyl)-6-(6,7-dimethoxyquinazolin-4-yloxy)-1-naphthamide] | 6 nM |
|  |  |  | 15.9% | 32 nM | 1.2 Fold |  |  | Nc1ccccc1NC(=O)c1cccc2cc(Oc3ccnc4ccccc34)ccc12 [Example 39, N-(2-aminophenyl)-6-(quinolin-4-yloxy)-1-naphthamide] | 107 nM |
| 15.9 µM | 17.3 µM | 7.5 µM | 21.7% | 20 nM | 1.8 Fold | 8.3 µM | 6.6 µM | COc1ccc2c(Oc3ccc4c(C(=O)Nc5ccc(F)cc5N)cccc4c3)ccnc2c1 [Example 32, N-(2-amino-4-fluorophenyl)-6-(7-methoxyquinolin-4-yloxy)-1-naphthamide] | 2 nM |
|  |  |  | 38.7% |  | 6.1 Fold |  |  | Nc1ccccc1NC(=O)c1ccc(CNC(=O)c2cccc3cc(Oc4ccnc5cc(Cl)ccc45)ccc23)cc1 [Example 43, N-(4-((2-aminophenyl)carbamoyl)benzyl)-6-(7-chloroquinolin-4-yloxy)-1-naphthamide] | 288 nM |
| 3.87 µM | 18.9 µM | 12.1 µM |  |  | 33 Fold | 11.2 µM | 7.71 µM | Nc1cc(F)ccc1NC(=O)c1ccc(CNC(=O)/C=C/c2cccnc2)cc1 [CS055, Chidamide, reference compound] |  |
|  |  |  | 18.6% | 19 nM | 1.1 Fold |  |  | COc1cc2ncnc(Oc3ccc4c(C(=O)Nc5ccc(Br)cc5N)cccc4c3)c2cc1OC [Example 21, N-(2-amino-4-bromophenyl)-6-(6,7-dimethoxyquinazolin-4-yloxy)-1-naphthamide] | 5 nM |
|  |  |  | 6.2% | 48 nM | 1.3 Fold |  |  | Nc1ccccc1NC(=O)c1cccc2cc(Oc3ccnc4c(C(F)(F)F)cccc34)ccc12 [Example 42, N-(2-aminophenyl)-6-(8-trifluoromethylquinolin-4-yloxy)-1-naphthamide] | 1000 nM |
|  |  |  | 22.2% |  | 1.3 Fold |  |  | Cc1cccc2c(Oc3ccc4c(C(=O)Nc5ccccc5N)cccc4c3)ccnc12 [Example 40, N-(2-aminophenyl)-6-(8-methylquinolin-4-yloxy)-1-naphthamide] | 1000 nM |
|  |  |  | 17% | 372 nM | 1.1 Fold |  |  | COc1cc2ncnc(Oc3ccc4c(C(=O)Nc5ccc(C(F)(F)F)cc5N)cccc4c3)c2cc1OC [Example 22, N-(2-amino-4-trifluoromethylphenyl)-6-(6,7-dimethoxyquinazolin-4-yloxy)-1-naphthamide] | 3 nM |
|  |  |  | 19.3% | 479 nM | 1.1 Fold |  |  | Nc1ccccc1NC(=O)c1cccc2cc(Oc3ccnc4cc(Cl)ccc34)ccc12 [Example 41, N-(2-aminophenyl)-6-(7-chloroquinolin-4-yloxy)-1-naphthamide] | 105 nM |
|  |  |  | 21.9% | 11 nM | 1.4 Fold |  |  | COc1ccc(NC(=O)c2cccc3cc(Oc4ncnc5cc(OC)c(OC)cc45)ccc23)c(N)c1 [Example 19, N-(2-amino-4-methoxyphenyl)-6-(6,7-dimethoxyquinazolin-4-yloxy)-1-naphthamide] | 23 nM |

From patent publication US8211901B2, “Naphthamide derivatives as multi-target protein kinase inhibitors and histone deacetylase inhibitors” (Shenzhen Chipscreen Biosciences Ltd., priority 2009, dated 2012)
